Measured values published in US20250011330A1, “Imidazo[1,2- a]pyrazine and Imidazo[1,2- a]pyridine Based Tyrosyl-DNA Phosphodiesterase I (TDP1) Inhibitors” (The USA, As Represented by the Secretary, Department of …, priority 2021, published 2025).
Read-outs that look alike come from different tables or passages of the source.

How the values were obtained:
[1] = biological target: TDP1 (Homo sapiens (Human), UniProt Q9NUW8); experiment: TDP1 gel-based in vitro fluorescence assay; type: biochemical; details: for FC (fold change): Table 7, ratio of IC50 TDP2 to TDP1
Chain of TDP1 (Q9NUW8 whole entry): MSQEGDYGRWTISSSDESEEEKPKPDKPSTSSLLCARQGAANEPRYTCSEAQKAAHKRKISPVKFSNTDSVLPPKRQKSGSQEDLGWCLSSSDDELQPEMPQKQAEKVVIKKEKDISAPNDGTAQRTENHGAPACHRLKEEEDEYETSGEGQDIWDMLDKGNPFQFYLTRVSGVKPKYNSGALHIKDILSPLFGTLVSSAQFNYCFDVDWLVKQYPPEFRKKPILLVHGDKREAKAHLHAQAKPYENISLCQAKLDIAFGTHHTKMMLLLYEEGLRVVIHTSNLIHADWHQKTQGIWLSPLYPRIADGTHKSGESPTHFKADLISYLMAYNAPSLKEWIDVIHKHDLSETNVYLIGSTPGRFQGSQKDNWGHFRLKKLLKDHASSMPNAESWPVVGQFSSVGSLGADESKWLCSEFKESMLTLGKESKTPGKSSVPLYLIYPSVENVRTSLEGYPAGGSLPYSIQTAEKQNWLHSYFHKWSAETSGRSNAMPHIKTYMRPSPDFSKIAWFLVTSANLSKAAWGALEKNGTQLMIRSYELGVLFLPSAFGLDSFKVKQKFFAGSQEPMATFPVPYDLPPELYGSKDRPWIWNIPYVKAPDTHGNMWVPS
Description: (§1) (TDP assay buffer: 50 mM Tris HCl, pH 7.5, 80 mM KCl, 2 mM EDTA, 1 mM DTT, 40 μg/ml BSA and 0.01% Tween-20. TDP1 (20 mg/mL in 25 mM Tris-HCl pH 7.2, 150 mM NaCl, 2 mM tris(2-carboxyethyl)phosphine) with 2 mL of well solution composed of 0.1 M MOPS/HEPES pH 7.5, 10% (w/v) PEG 8000, 20% (v/v) ethylene glycol, 0.03 M sodium fluoride, 0.03 M sodium bromide, 0.03 M sodium iodide, 0.03 M sodium bromide and sealed over […] well solution. AF647 labelling buffer: Tris-HCl (pH 7.2, 25 mM), NaCl (150 mM), and tris(2-carboxyethyl)phosphine hydrochloride (TCEP, 2 mM).)
(§2) (DNA only: Buffer+DMSO. DMSO only: Enzyme+DMSO. Drug: Enzyme+Drug, 25° C., 10 min+DNA, reaction at 25° C., 15 min.)
Gel images were scanned using a Typhoon FLA 9500 scanner (GE Healthcare) and densitometric analyses were performed using the ImageQuant software (GE Healthcare). The IC50 of TDP1 inhibitors was calculated by comparing the percentage of cleavage product (5′Cy5-[…]-p-3′) to DMSO control.

[2] = biological target: TDP2 (Homo sapiens (Human), UniProt O95551); experiment: gel-based TDP2 fluorescence assay in vitro; type: biochemical; details: read-out: TDP2 IC50
Chain of TDP2 (O95551 whole entry, species assumed): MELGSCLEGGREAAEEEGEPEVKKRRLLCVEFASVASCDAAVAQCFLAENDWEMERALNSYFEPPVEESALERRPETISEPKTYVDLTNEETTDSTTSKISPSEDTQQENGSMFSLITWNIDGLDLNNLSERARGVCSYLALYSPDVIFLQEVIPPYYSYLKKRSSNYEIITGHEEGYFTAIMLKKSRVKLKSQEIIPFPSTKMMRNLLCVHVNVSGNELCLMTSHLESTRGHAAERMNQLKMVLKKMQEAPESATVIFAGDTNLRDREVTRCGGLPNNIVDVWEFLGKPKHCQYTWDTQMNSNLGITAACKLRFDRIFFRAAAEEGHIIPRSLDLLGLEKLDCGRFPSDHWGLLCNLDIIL
Description: as §1, §2

[3] = tested on: human colon cancer cell line HCT116; experiment: Synergistic effect with camptothecin (CPT) based on cell viability; details: for synergy with camptothecin: list in description; for Synergy Score: with camptothecin (CPT), HCT116, 72 h, SynergyFinder 2.0
Description: The synergistic effects of the TDP1 inhibitors with CPT were tested in human colon cancer cell line HCT116 based on cell viability (Table 3, FIGS. 2-5). Cells were first seeded in a 384-well black-clear plate until 30% confluency and then incubated with a serial dilution of CPT at the range of 0-100 nM in the present or the absence of TDP1 inhibitors for 72 h at 37° C. Viable cell numbers were counted from the brightfield images taken by Biotek Cytation 5 (FIGS. 2-3). Fractional affect (Fa) and combination index (Ci) were analyzed with CompuSyn software. Synergistic scores of each TDP1 inhibitors were calculated and collected based on the data analysis from SynergyFinder (FIG. 4). […]

[4] = Table 7, HPLC-purified oxime leads
[5] = Table 1, imidazo[1,2-a]pyridin-3-amines, read-out: IC50
[6] = Table 10, PROTACs, read-out: TDP1 IC50
[7] = Table 7, HPLC-purified oxime leads, read-out: TDP1 IC50

Compound: N#Cc1ccc(-c2ccc(/C=N\OCc3ccc(-c4nc5cc(-c6ccccc6)ccn5c4Nc4ccc(C(=O)O)cc4)cc3)cc2)nc1 [XZ708, (Z)-4-((2-(4-((((4-(5-Cyanopyridin-2-yl)benzylidene)amino)oxy)methyl)phenyl)-7-phenylimidazo[1,2-a]pyridin-3-yl)amino)benzoic acid]
- FC (fold change) [1]: >18
- IC50 [2, 4]: > 100 µM
- synergy with camptothecin [3]: exhibit synergy with camptothecin

Compound: O=C(O)c1ccc(Nc2c(-c3ccccc3O)nc3cnccn23)cc1 [Compound M7]
- synergy with camptothecin [3]: exhibit synergy with camptothecin
- Synergy Score [3]: 15.6

Compound: O=C(O)c1ccc(Nc2c(-c3ccccc3)nc3cc(C(=O)O)ccn23)cc1 [Compound 8s, 3-((4-Carboxyphenyl)amino)-2-phenylimidazo[1,2-a]pyridine-7-carboxylic acid]
- IC50 ([2]; Table 3): > 100 µM
- synergy with camptothecin [3]: exhibit synergy with camptothecin
- Synergy Score [3]: 20.7

Compound: CS(=O)(=O)c1ccc2nc(-c3ccccc3)c(Nc3ccc([N+](=O)[O-])cc3)n2c1 [Compound 6u, 6-(Methylsulfonyl)-N-(4-nitrophenyl)-2-phenylimidazo[1,2-a]pyridin-3-amine]
- IC50 [1, 5]: 16.1 µM
- synergy with camptothecin [3]: exhibit synergy with camptothecin

Compound: O=C(O)c1ccc(Nc2c(-c3ccccc3)nc3ccc(Br)cn23)cc1 [Compound 8o, 4-((6-Bromo-2-phenylimidazo[1,2-a]pyridin-3-yl)amino)benzoic acid]
- IC50 [1, 5]: 1.6 µM
- synergy with camptothecin [3]: exhibit synergy with camptothecin

Compound: O=C(O)c1ccc(Nc2c(-c3ccccc3)nc3ccccn23)cc1C(=O)O [Compound 10b, 4-((2-Phenylimidazo[1,2-a]pyridin-3-yl)amino)phthalic acid]
- IC50 ([2]; Table 3): > 100 µM
- synergy with camptothecin [3]: exhibit synergy with camptothecin
- Synergy Score [3]: 17.9

Compound: O=C(O)c1ccc(Nc2c(-c3ccc(CO/N=C\c4ccc(N5CCCC5=O)cc4)cc3)nc3cc(-c4ccccc4)ccn23)cc1 [XZ710, (Z)-4-((2-(4-((((4-(2-Oxopyrrolidin-1-yl)benzylidene)amino)oxy)methyl)phenyl)-7-phenylimidazo[1,2-a]pyridin-3-yl)amino)benzoic acid]
- FC (fold change) [1]: >13
- IC50 [2, 4]: > 100 µM

Compound: O=C(COc1cccc2c1C(=O)N(C1CCC(=O)NC1=O)C2=O)NCCCCn1cc(-c2ccn3c(Nc4ccc(C(=O)O)cc4)c(-c4ccccc4)nc3c2)nn1 (stereo not shown) [XZ685, 4-((7-(1-(4-(2-((2-(2,6-dioxopiperidin-3-yl)-1,3-dioxoisoindolin-4-yl)oxy)acetamido)butyl)-1H-1,2,3-triazol-4-yl)-2-phenylimidazo[1,2-a]pyridin-3-yl)amino)benzoic acid]
- IC50 [1, 6]: > 100 µM
- IC50 ([2]; Table 10, PROTACs): > 100 µM

Compound: O=C(O)c1ccc(Nc2c(-c3ccccc3)nc3ccc(C(=O)O)cn23)cc1 [Compound 8m, 3-((4-Carboxyphenyl)amino)-2-phenylimidazo[1,2-a]pyridine-6-carboxylic acid]
- IC50 [1, 5]: 0.9 µM
- synergy with camptothecin [3]: exhibit synergy with camptothecin

Compound: O=C(O)c1ccc(Nc2c(-c3cccc(OS(=O)(=O)F)c3)nc3cc(-c4ccccc4)ccn23)cc1 [XZ729, 4-((2-(3-((Fluorosulfonyl)oxy)phenyl)-7-phenylimidazo[1,2-a]pyridin-3-yl)amino)benzoic acid]
- IC50 ([1]; Table 9, fluorosulfates and sulfonyl fluorides, read-out: TDP1 IC50): > 100 µM
- IC50 ([2]; Table 9, fluorosulfates and sulfonyl fluorides): > 100 µM

Compound: N#Cc1ccc(-c2ccc(/C=N/OCc3ccc4nc(-c5ccccc5)c(Nc5ccc(C(=O)O)cc5)n4c3)cc2)nc1 [XZ706, (E)-4-((6-((((4-(5-cyanopyridin-2-yl)benzylidene)amino)oxy)methyl)-2-phenylimidazo[1,2-a]pyridin-3-yl)amino)benzoic acid]
- IC50 [1, 7]: 17.4 ± 3.2 µM
- FC (fold change) [1]: 4
- loss of TDP1 potency relative to 102 ([1]; fold loss versus 102): about 2 fold
- IC50 [2, 4]: 62.1 ± 10.1 µM
- synergy with camptothecin [3]: exhibit synergy with camptothecin

Compound: N#Cc1ccc(-c2ccc(/C=N\OCc3ccc4nc(-c5ccccc5)c(Nc5ccc(C(=O)O)cc5)n4c3)cc2)nc1 [XZ717, (Z)-4-((6-((((4-(5-Cyanopyridin-2-yl)benzylidene)amino)oxy)methyl)-2-phenylimidazo[1,2-a]pyridin-3-yl)amino)benzoic acid]
- IC50 [1, 7]: 50.3 ± 10.7 µM
- FC (fold change) [1]: >2
- IC50 [2, 4]: > 100 µM

Compound: O=C(O)c1ccc(Nc2c(-c3ccccc3)nc3cnccn23)cc1 [Compound 7b, 4-((2-Phenylimidazo[1,2-a]pyrazin-3-yl)amino)benzoic acid]
- IC50 ([2]; Table 3): > 100 µM
- Synergy Score [3]: 3

Compound: O=C1CCC(N2C(=O)c3cccc(NCCc4cn(Cc5ccc(-c6nc7cc(-c8ccccc8)ccn7c6Nc6ccc(C(=O)O)cc6)cc5)nn4)c3C2=O)C(=O)N1 (stereo not shown) [XZ749, 4-((2-(4-((4-(2-((2-(2,6-Dioxopiperidin-3-yl)-1,3-dioxoisoindolin-4-yl)amino)ethyl)-1H-1,2,3-triazol-1-yl)methyl)phenyl)-7-phenylimidazo[1,2-a]pyridin-3-V)amino)benzoic acid]
- IC50 [1, 6]: 12.3 ± 1.5 µM
- IC50 ([2]; Table 10, PROTACs): 16.8 ± 0.3 µM

Compound: Cc1ncsc1-c1ccc(CNC(=O)[C@@H]2C[C@@H](O)CN2C(=O)[C@@H](NC(=O)COCCOCCOCCn2cc(-c3ccn4c(Nc5ccc(C(=O)O)cc5)c(-c5ccccc5)nc4c3)nn2)C(C)(C)C)cc1 [XZ683, 4-((7-(1-((S)-13-((2S,4R)-4-Hydroxy-2-((4-(4-methylthiazol-5-yl)benzyl)carbamoyl)pyrrolidine-1-carbonyl)-14,14-dimethyl-11-oxo-3,6,9-trioxa-12-azapentadecyl)-1H-1,2,3-triazol-4-yl)-2-phenylimidazo[1,2-a]pyridin-3-yl)amino)benzoic acid]
- IC50 [1, 6]: > 100 µM
- IC50 ([2]; Table 10, PROTACs): > 100 µM

Compound: O=C(O)c1ccc(Nc2c(-c3ccccc3)nc3ccccn23)cc1 [Compound 8a, 4-((2-Phenylimidazo[1,2-a]pyridin-3-yl)amino)benzoic acid]
- IC50 ([2]; Table 3): > 100 µM
- Synergy Score [3]: −1.3

Compound: CS(=O)(=O)c1ccc2nc(-c3ccccc3)c(Nc3ccc(C(=O)O)cc3)n2c1 [Compound 8q, 4-((6-(Methylsulfonyl)-2-phenylimidazo[1,2-a]pyridin-3-yl)amino)benzoic acid]
- TDP1 Selectivity ([1]; ratio of IC50 values of TDP1/TDP2): 26
- Synergy Score [3]: 9.5

Compound: O=C(COc1cccc2c1C(=O)N(C1CCC(=O)NC1=O)C2=O)NCCCCn1cc(-c2ccc(-c3nc4ccccn4c3Nc3ccc(C(=O)O)cc3)cc2)nn1 (stereo not shown) [XZ689, 4-((2-(4-(1-(4-(2-((2-(2,6-dioxopiperidin-3-yl)-1,3-dioxoisoindolin-4-yl)oxy)acetamido)butyl)-1H-1,2,3-triazol-4-yl)phenyl)imidazo[1,2-a]pyridin-3-yl)amino)benzoic acid]
- IC50 [1, 6]: > 100 µM
- IC50 ([2]; Table 10, PROTACs): > 100 µM

Compound: O=C(O)c1ccc(Nc2c(-c3ccc(CO/N=C\c4ccc(-c5ccccc5)cc4)cc3)nc3cc(-c4ccccc4)ccn23)cc1 [XZ712, (Z)-4-((2-(4-(((([1,1′-Biphenyl]-4-ylmethylene)amino)oxy)methyl)phenyl)-7-phenylimidazo[1,2-a]pyridin-3-yl)amino)benzoic acid]
- FC (fold change) [1]: >2
- IC50 [2, 4]: > 100 µM

Compound: O=C(COc1cccc2c1C(=O)N(C1CCC(=O)NC1=O)C2=O)NCCCCn1cc(COc2ccc(-c3nc4cc(-c5ccccc5)ccn4c3Nc3ccc(C(=O)O)cc3)cc2)nn1 (stereo not shown) [XZ686, 4-((2-(4-((1-(4-(2-((2-(2,6-Dioxopiperidin-3-yl)-1,3-dioxoisoindolin-4-yl)oxy)acetamido)butyl)-1H-1,2,3-triazol-4-yl)methoxy)phenyl)-7-phenylimidazo[1,2-a]pyridin-3-yl)amino)benzoic acid]
- IC50 [1, 6]: > 100 µM
- IC50 ([2]; Table 10, PROTACs): > 100 µM

Compound: O=C(COc1cccc2c1C(=O)N(C1CCC(=O)NC1=O)C2=O)NCCCCn1cc(COc2ccc(-c3nc4ccccn4c3Nc3ccc(C(=O)O)cc3)cc2)nn1 (stereo not shown) [XZ688, 4-((2-(4-((1-(4-(2-((2-(2,6-Dioxopiperidin-3-yl)-1,3-dioxoisoindolin-4-yl)oxy)acetamido)butyl)-1H-1,2,3-triazol-4-yl)methoxy)phenyl)imidazo[1,2-a]pyridin-3-yl)amino)benzoic acid]
- IC50 [1, 6]: > 100 µM
- IC50 ([2]; Table 10, PROTACs): > 100 µM
